Numbers after ± are expanded uncertainties.
Settings: Liquid, Vibrating tube method

CCOC(C)(C)C [2-ethoxy-2-methylpropane]
Settings | mass density [kg/m3]
283.15 K, 100 kPa | 751.23 ± 0.3
283.15 K, 5000 kPa | 756.42 ± 0.33
283.15 K, 10000 kPa | 761.33 ± 0.36
283.15 K, 15000 kPa | 765.98 ± 0.4
283.15 K, 20000 kPa | 770.36 ± 0.43
283.15 K, 25000 kPa | 774.54 ± 0.46
283.15 K, 30000 kPa | 778.52 ± 0.49
283.15 K, 35000 kPa | 782.33 ± 0.53
283.15 K, 40000 kPa | 785.98 ± 0.57
283.15 K, 45000 kPa | 789.49 ± 0.6
283.15 K, 50000 kPa | 792.89 ± 0.64
283.15 K, 55000 kPa | 796.17 ± 0.67
283.15 K, 60000 kPa | 799.33 ± 0.7
283.15 K, 65000 kPa | 802.42 ± 0.73
288.15 K, 100 kPa | 746.2 ± 0.3
288.15 K, 5000 kPa | 751.53 ± 0.33
288.15 K, 10000 kPa | 756.63 ± 0.36
288.15 K, 15000 kPa | 761.42 ± 0.4
288.15 K, 20000 kPa | 765.93 ± 0.43
288.15 K, 25000 kPa | 770.23 ± 0.47
288.15 K, 30000 kPa | 774.31 ± 0.5
288.15 K, 35000 kPa | 778.21 ± 0.54
288.15 K, 40000 kPa | 781.97 ± 0.57
288.15 K, 45000 kPa | 785.55 ± 0.61
288.15 K, 50000 kPa | 789.02 ± 0.64
288.15 K, 55000 kPa | 792.37 ± 0.68
288.15 K, 60000 kPa | 795.56 ± 0.71
288.15 K, 65000 kPa | 798.71 ± 0.74
293.15 K, 100 kPa | 741.05 ± 0.3
293.15 K, 5000 kPa | 746.6 ± 0.33
293.15 K, 10000 kPa | 751.89 ± 0.37
293.15 K, 15000 kPa | 756.83 ± 0.4
293.15 K, 20000 kPa | 761.5 ± 0.44
293.15 K, 25000 kPa | 765.92 ± 0.47
293.15 K, 30000 kPa | 770.13 ± 0.5
293.15 K, 35000 kPa | 774.13 ± 0.54
293.15 K, 40000 kPa | 777.97 ± 0.58
293.15 K, 45000 kPa | 781.65 ± 0.62
293.15 K, 50000 kPa | 785.19 ± 0.65
293.15 K, 55000 kPa | 788.63 ± 0.69
293.15 K, 60000 kPa | 791.91 ± 0.72
293.15 K, 65000 kPa | 795.1 ± 0.75
298.15 K, 100 kPa | 735.9 ± 0.3
298.15 K, 5000 kPa | 741.67 ± 0.33
298.15 K, 10000 kPa | 747.14 ± 0.37
298.15 K, 15000 kPa | 752.27 ± 0.4
298.15 K, 20000 kPa | 757.08 ± 0.44
298.15 K, 25000 kPa | 761.61 ± 0.47
298.15 K, 30000 kPa | 765.96 ± 0.51
298.15 K, 35000 kPa | 770.04 ± 0.55
298.15 K, 40000 kPa | 773.96 ± 0.59
298.15 K, 45000 kPa | 777.75 ± 0.62
298.15 K, 50000 kPa | 781.37 ± 0.66
298.15 K, 55000 kPa | 784.85 ± 0.69
298.15 K, 60000 kPa | 788.21 ± 0.73
298.15 K, 65000 kPa | 791.48 ± 0.76
303.15 K, 100 kPa | 730.67 ± 0.3
303.15 K, 5000 kPa | 736.68 ± 0.33
303.15 K, 10000 kPa | 742.38 ± 0.37
303.15 K, 15000 kPa | 747.69 ± 0.41
303.15 K, 20000 kPa | 752.63 ± 0.44
303.15 K, 25000 kPa | 757.33 ± 0.48
303.15 K, 30000 kPa | 761.74 ± 0.52
303.15 K, 35000 kPa | 765.95 ± 0.56
303.15 K, 40000 kPa | 769.98 ± 0.59
303.15 K, 45000 kPa | 773.86 ± 0.63
303.15 K, 50000 kPa | 777.57 ± 0.67
303.15 K, 55000 kPa | 781.12 ± 0.7
303.15 K, 60000 kPa | 784.56 ± 0.74
303.15 K, 65000 kPa | 787.89 ± 0.77
308.15 K, 100 kPa | 725.44 ± 0.3
308.15 K, 5000 kPa | 731.69 ± 0.33
308.15 K, 10000 kPa | 737.6 ± 0.37
308.15 K, 15000 kPa | 743.07 ± 0.41
308.15 K, 20000 kPa | 748.18 ± 0.44
308.15 K, 25000 kPa | 753.01 ± 0.48
308.15 K, 30000 kPa | 757.57 ± 0.52
308.15 K, 35000 kPa | 761.9 ± 0.56
308.15 K, 40000 kPa | 766.03 ± 0.6
308.15 K, 45000 kPa | 769.97 ± 0.64
308.15 K, 50000 kPa | 773.76 ± 0.68
308.15 K, 55000 kPa | 777.4 ± 0.71
308.15 K, 60000 kPa | 780.9 ± 0.75
308.15 K, 65000 kPa | 784.29 ± 0.78
313.15 K, 100 kPa | 720.14 ± 0.3
313.15 K, 5000 kPa | 726.68 ± 0.34
313.15 K, 10000 kPa | 732.78 ± 0.37
313.15 K, 15000 kPa | 738.45 ± 0.41
313.15 K, 20000 kPa | 743.71 ± 0.45
313.15 K, 25000 kPa | 748.69 ± 0.48
313.15 K, 30000 kPa | 753.36 ± 0.53
313.15 K, 35000 kPa | 757.81 ± 0.57
313.15 K, 40000 kPa | 762.03 ± 0.61
313.15 K, 45000 kPa | 766.08 ± 0.65
313.15 K, 50000 kPa | 769.94 ± 0.68
313.15 K, 55000 kPa | 773.66 ± 0.72
313.15 K, 60000 kPa | 777.23 ± 0.75
313.15 K, 65000 kPa | 780.69 ± 0.79
318.15 K, 100 kPa | 714.82 ± 0.3
318.15 K, 5000 kPa | 721.59 ± 0.34
318.15 K, 10000 kPa | 727.94 ± 0.37
318.15 K, 15000 kPa | 733.82 ± 0.41
318.15 K, 20000 kPa | 739.27 ± 0.45
318.15 K, 25000 kPa | 744.39 ± 0.49
318.15 K, 30000 kPa | 749.2 ± 0.53
318.15 K, 35000 kPa | 753.76 ± 0.57
318.15 K, 40000 kPa | 758.08 ± 0.61
318.15 K, 45000 kPa | 762.23 ± 0.65
318.15 K, 50000 kPa | 766.19 ± 0.69
318.15 K, 55000 kPa | 769.98 ± 0.73
318.15 K, 60000 kPa | 773.61 ± 0.76
318.15 K, 65000 kPa | 777.13 ± 0.8
323.15 K, 100 kPa | 709.43 ± 0.3
323.15 K, 5000 kPa | 716.51 ± 0.34
323.15 K, 10000 kPa | 723.13 ± 0.38
323.15 K, 15000 kPa | 729.2 ± 0.42
323.15 K, 20000 kPa | 734.81 ± 0.45
323.15 K, 25000 kPa | 740.06 ± 0.49
323.15 K, 30000 kPa | 745.02 ± 0.54
323.15 K, 35000 kPa | 749.69 ± 0.58
323.15 K, 40000 kPa | 754.13 ± 0.62
323.15 K, 45000 kPa | 758.36 ± 0.66
323.15 K, 50000 kPa | 762.39 ± 0.7
323.15 K, 55000 kPa | 766.26 ± 0.74
323.15 K, 60000 kPa | 770 ± 0.77
323.15 K, 65000 kPa | 773.58 ± 0.81
328.15 K, 100 kPa | 703.95 ± 0.3
328.15 K, 5000 kPa | 711.38 ± 0.34
328.15 K, 10000 kPa | 718.21 ± 0.38
328.15 K, 15000 kPa | 724.52 ± 0.42
328.15 K, 20000 kPa | 730.3 ± 0.46
328.15 K, 25000 kPa | 735.75 ± 0.5
328.15 K, 30000 kPa | 740.83 ± 0.54
328.15 K, 35000 kPa | 745.64 ± 0.58
328.15 K, 40000 kPa | 750.18 ± 0.63
328.15 K, 45000 kPa | 754.48 ± 0.67
328.15 K, 50000 kPa | 758.63 ± 0.71
328.15 K, 55000 kPa | 762.55 ± 0.74
328.15 K, 60000 kPa | 766.37 ± 0.78
328.15 K, 65000 kPa | 770.52 ± 0.82
333.15 K, 100 kPa | 698.45 ± 0.3
333.15 K, 5000 kPa | 706.19 ± 0.34
333.15 K, 10000 kPa | 713.35 ± 0.38
333.15 K, 15000 kPa | 719.84 ± 0.42
333.15 K, 20000 kPa | 725.83 ± 0.46
333.15 K, 25000 kPa | 731.42 ± 0.5
333.15 K, 30000 kPa | 736.64 ± 0.55
333.15 K, 35000 kPa | 741.54 ± 0.59
333.15 K, 40000 kPa | 746.21 ± 0.63
333.15 K, 45000 kPa | 750.65 ± 0.67
333.15 K, 50000 kPa | 754.86 ± 0.71
333.15 K, 55000 kPa | 758.88 ± 0.75
333.15 K, 60000 kPa | 762.77 ± 0.79
333.15 K, 65000 kPa | 766.51 ± 0.83
